Measurements taken from US5070096A, “Quinolinoxy phenylsulphonamides” (Bayer Aktiengesellschaft, priority 1986, dated 1991).

How the values were obtained:
[1] = tested on: mouse ear inflammation; assay: Mouse ear inflammation test; type: in vivo
Method: (§1) The liberation of leukotriene B4 (LTB4) in polymorphonuclear rat leukocytes (PMN) after addition of substances and calcium ionophore was determined by means of reverse phase HPLC according to Sorgeat, P. et al, Proc. Nat. Acad. Sci. 76, 2148-2152 (1979) as a measure of the lipoxygenase inhibition. The in vivo activity of the compounds was determined using the mouse ear inflammation model according to Young, J. M. et al., J. of Investigative Dermatology 82, 367-371 (1984).

[2] = tested on: lipoxygenase; assay: Inhibition of lipoxygenase (liberation of leukotriene B4 in polymorphonuclear rat leukocytes, calcium ionophore, HPLC); type: cell-based; conditions: LTB4 liberation in rat PMN
Method: as §1

| SMILES | IC50 value, inhibition of lipoxygenase [2] [µg/mL] | Inhibition of inflammation, % ([1]; 100 mg/kg per os) [%] | Inhibition of inflammation, % ([1]; 2 mg/ear topical) [%] |
| --- | --- | --- | --- |
| O=S(=O)(Nc1ccc(Oc2cccc3cccnc23)cc1)c1cccc(C(F)(F)F)c1 [Example 44, N-[4-(quinolin-8-yloxy)phenyl]-3-trifluoromethylbenzenesulphonamide] |  | 38 |  |
| O=S(=O)(Nc1ccc(Oc2ccc3cccnc3c2)cc1)c1ccc(Cl)cc1 [Example 53, N-[4-(quinolin-7-yloxy)phenyl]-4-chlorobenzenesulphonamide] | 0.088 |  |  |
| O=S(=O)(Nc1ccc(Oc2ccc3cccnc3c2)cc1)c1cccc(C(F)(F)F)c1 [Example 54, N-[4-(quinolin-7-yloxy)phenyl]-3-trifluoromethylbenzenesulphonamide] | 0.17 |  |  |
| O=S(=O)(Nc1ccc(Oc2ccc3cccnc3c2)cc1)c1ccc(F)cc1 [Example 57, N-[4-(quinolin-7-yloxy)phenyl]-4-fluorobenzenesulphonamide] | 0.033 |  |  |
| Cc1ccnc2c(Oc3ccc(NS(=O)(=O)c4ccc(Cl)cc4)cc3)cccc12 [Example 58, N-[4-(4-methylquinolin-8-yloxy)phenyl]-4-chlorobenzenesulphonamide] |  |  | 58 |
| O=S(=O)(Nc1ccc(OCc2ccc3ccccc3n2)cc1)c1ccc(Cl)cc1 [Example 73, N-[4-(quinolin-2-yl-methyloxy)phenyl]-4-chlorobenzenesulphonamide] | 0.1 |  |  |

Now from value to compound, other results behind:

| IC50 value, inhibition of lipoxygenase [2] [µg/mL] | SMILES | Inhibition of inflammation, % ([1]; 100 mg/kg per os) [%] | Inhibition of inflammation, % ([1]; 2 mg/ear topical) [%] |
| --- | --- | --- | --- |
| 0.1 | O=S(=O)(Nc1ccc(OCc2ccc3ccccc3n2)cc1)c1cccc(C(F)(F)F)c1 [Example 74, N-[4-(quinolin-2-yl-methyloxy)phenyl]-3-trifluoromethylbenzenesulphonamide] |  |  |
| 0.057 | CCCCS(=O)(=O)Nc1ccc(OCc2ccc3ccccc3n2)cc1 [Example 75, N-[4-(quinolin-2-yl-methyloxy)phenyl]butanesulphonamide] | 46 | 39 |
| 0.046 | O=S(=O)(CCCCl)Nc1ccc(OCc2ccc3ccccc3n2)cc1 [Example 76, N-[4-(quinolin-2-yl-methyloxy)phenyl]-3-chloropropanesulphonamide] | 37 |  |
| 0.074 | CCCC(C)S(=O)(=O)Nc1ccc(OCc2ccc3ccccc3n2)cc1 (centres unmarked) [Example 78, N-[4-(quinolin-2-yl-methyloxy)phenyl]-1-methylbutanesulphonamide] |  | 65 |
